The target in this assay is human PD-L1 / Human PD-1 (Homo sapiens (Human), UniProt Q9NZQ7). Briefly: Enzyme-Linked Immunosorbent Assay (ELISA), PD-1/PD-L1 binding. To be noted: plate-coated human PD-L1, biotinylated human PD-1, read-out: ELISA IC50. Summed up:
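Human PD-L1 coated at 1 μg/mL overnight at 4° C; samples diluted 1:5 and incubated with human PD-1 and biotin (0.3 μg/mL) for 1 h at 37° C. Bound PD-1 detected with streptavidin-HRP and TMB (20 min, 37° C), acid-stopped, absorbance at 450 nm.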
(In general: In an ELISA, binding on a coated surface is turned into a signal by an enzyme label.)

Structures are written as SMILES. Read-outs that look alike come from different tables or passages of the source.

human PD-L1 / Human PD-1, sequence (Q9NZQ7 19-239): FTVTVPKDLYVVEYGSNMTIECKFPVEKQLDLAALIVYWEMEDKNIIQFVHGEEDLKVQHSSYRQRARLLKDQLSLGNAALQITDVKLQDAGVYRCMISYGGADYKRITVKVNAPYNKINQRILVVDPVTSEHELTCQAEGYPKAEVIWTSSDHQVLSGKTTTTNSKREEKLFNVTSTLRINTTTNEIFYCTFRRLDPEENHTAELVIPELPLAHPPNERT

Turning to `COc1cccc(-c2cccc3c2CC[C@@H]3Oc2cc(OCc3cncc(C#N)c3)c(CN3CCC(CO)CC3)cc2Cl)c1Cl` [Example 2.081], the IC50 – broadly, the concentration at which inhibition is half-maximal – (Table 2) was 100 to 500 nM.

Regarding `N#Cc1cncc(COc2cc(O[C@H]3CCc4c(-c5ccccc5F)cccc43)c(Cl)cc2CN[C@@H](CC(N)=O)C(=O)O)c1` [Example 2.118], the IC50 (Table 2) is under 100 nM.

For `O=C(O)c1cncc(COc2cc(O[C@H]3CCc4c(-c5ccccc5F)cccc43)c(Cl)cc2CN[C@@H](CO)C(=O)O)c1` [Example 3.029], for the setting “Table 3”, the IC50 lay in the range of 100 to 500 nM.

Turning to `N#Cc1cncc(COc2cc(O[C@H]3CCc4c(-c5ccccc5F)cccc43)c(Cl)cc2CN2CCC(O)C(F)(F)C2)c1` (stereo partly shown) [Example 2.097], the IC50 (Table 2) was in the range of 500 to 20000 nM.

Take `N#Cc1cncc(COc2cc(O[C@H]3CCc4c(-c5ccccc5F)cccc43)c(Cl)cc2CN2CC(F)C2)c1` [Example 2.120]: the IC50 (Table 2) lay within 500 to 20000 nM.

For the compound `N#Cc1cncc(COc2cc(O[C@H]3CCc4c(-c5ccccc5F)cccc43)c(Cl)cc2CN2CC[C@H](O)[C@@H](F)C2)c1` [Example 2.114], for the setting “Table 2”, the IC50 lay in the range of 500 to 20000 nM.

Take `N#Cc1cncc(COc2cc(O[C@H]3CCc4c(-c5ccccc5F)cccc43)c(Cl)cc2CNC(=O)CCCC(=O)O)c1` [Example 2.173]: the IC50 (Table 2) is 500 to 20000 nM.

As for `CC(C)c1ccccc1-c1cccc2c1CC[C@@H]2Oc1cc(OCc2cncc(C#N)c2)c(CN[C@@H](CO)C(=O)O)cc1Cl` [Example 2.034], the IC50 (Table 2) is 100 to 500 nM.

With `N#Cc1cncc(COc2cc(O[C@H]3CCc4c(-c5ccccc5F)cccc43)c(Cl)cc2CNC2(C(=O)O)CCCC2)c1` [Example 2.165], the IC50 (Table 2) was under 100 nM.

Take `N#Cc1cncc(COc2cc(O[C@H]3CCc4c(-c5ccccc5F)cccc43)c(Cl)cc2CNC2CC(=O)NC(=O)C2)c1` [Example 3.065]: under “Table 3”, the half-inhibitory concentration (IC50) lay within 500 to 20000 nM.

With `C[C@H](O)[C@@H](NCc1cc(Cl)c(O[C@H]2CCc3c(-c4ccccc4F)cccc32)cc1OCc1cncc(C#N)c1)C(=O)O` [Example 2.122], the IC50 (Table 2) is under 100 nM.

On to `N#Cc1cncc(COc2cc(O[C@H]3CCc4c(-c5ccccc5F)cccc43)c(Cl)cc2CN2CCC(O)CC2)c1` [Example 2.029], for which the IC50 (Table 2) is under 100 nM.

Turning to `CC(NCc1cc(Cl)c(O[C@H]2CCc3c(-c4ccccc4F)cccc32)cc1OCc1cncc(C#N)c1)C(=O)NC(CO)C(=O)O` (stereo partly shown) [Example 3.095], the IC50 (Table 3) was under 100 nM.

Take `N#Cc1cc(C#N)cc(COc2cc(O[C@H]3CCc4c(-c5ccc6c(c5)OCCO6)cccc43)c(Cl)cc2CN[C@@H](CO)C(=O)O)c1` [Example 3.002]: the IC50 (Table 3) is under 100 nM.

Regarding `Nc1ncc(COc2cc(O[C@H]3CCc4c(-c5ccccc5F)cccc43)c(Cl)cc2CN2CCC(O)CC2)cn1` [Example 2.130], the IC50 (Table 2) fell in the range of 100 to 500 nM.

For `C[C@@H](O)[C@H](NCc1cc(Cl)c(O[C@H]2CCc3c(-c4ccc5c(c4F)OCCO5)cccc32)cc1OCc1cncc(C#N)c1)C(=O)O` [Example 3.053], the IC50 (Table 3) is under 100 nM.

Turning to `N#Cc1cncc(COc2cc(O[C@H]3CCc4c(-c5ccc6c(c5)OCO6)cccc43)c(Cl)cc2CN[C@@H](CO)C(=O)O)c1` [Example 3.122], the IC50 (Table 3) is under 100 nM.

As for `COc1ccc(-c2cccc3c2CC[C@@H]3Oc2cc(OCc3cncc(C#N)c3)c(CN[C@@H](CO)C(=O)O)cc2Cl)c(F)c1` [Example 2.044], the IC50 (Table 2) was 100 to 500 nM.

For the compound `N#Cc1cncc(COc2cc(O[C@H]3CCc4c(-c5ccccc5F)cccc43)c(Cl)cc2CNCP(=O)(O)O)c1` [Example 2.063], for the setting “Table 2”, the IC50 was under 100 nM.

Take `COc1ccc(-c2cccc3c2CC[C@@H]3Oc2cc(OCc3cncc(C#N)c3)c(CN[C@@H](CO)C(=O)O)cc2Cl)cc1` [Example 2.014]: under “Table 2”, the IC50 lay within 100 to 500 nM.

In the case of `COc1cccc(-c2cccc3c2CC[C@@H]3Oc2cc(OCc3cncc(C#N)c3)c(CN[C@H](CO)C(=O)O)cc2Cl)c1F` [Example 2.107], the IC50 (Table 2) was under 100 nM.

Turning to `N#Cc1cncc(COc2cc(O[C@H]3CCc4c(-c5ccc6c(c5Cl)OCCO6)cccc43)c(Cl)cc2CN[C@@H](CO)C(=O)O)c1` [Example 2.161], the IC50 (Table 2) is under 100 nM.

In the case of `N#Cc1cncc(COc2cc(O[C@H]3CCc4c(-c5ccccc5F)cccc43)c(Cl)cc2CNC(C(N)=O)C(N)=O)c1` [Example 2.170], the IC50 (Table 2) is 500 to 20000 nM.

In the case of `N#Cc1cncc(COc2cc(O[C@H]3CCc4c(-c5ccccc5CO)cccc43)c(Cl)cc2CN[C@@H](CO)C(=O)O)c1` [Example 3.127], the IC50 (Table 3) is under 100 nM.

With `N#Cc1cncc(COc2cc(O[C@@H]3c4cccc(-c5ccccc5F)c4C[C@H]3F)c(Cl)cc2CN[C@@H](CO)C(=O)O)c1` [Example 2.147], the IC50 (Table 2) is under 100 nM.

On to `COc1cccc(-c2cccc3c2CC[C@@H]3Oc2cc(OCc3cncc(C#N)c3)c(CNCc3n[nH]c(=O)[nH]3)cc2Cl)c1F` [Example 2.053], for which, where the note is “Table 2”, the IC50 was 100 to 500 nM.

As for `C=CC(=O)NCCNCc1cc(Cl)c(O[C@H]2CCc3c(-c4ccccc4F)cccc32)cc1OCc1cncc(C#N)c1` [Example 2.137], for the setting “Table 2”, the IC50 was in the range of 100 to 500 nM.

On to `N#Cc1cncc(COc2cc(O[C@H]3CCc4c(-c5ccccc5F)cccc43)c(Cl)cc2CNC(CO)CO)c1` [Example 3.129], for which the IC50 (Table 3) is under 100 nM.

Regarding `N#Cc1cncc(COc2cc(O[C@H]3CCc4c(-c5ccccc5F)cccc43)c(Cl)cc2CNCC(N)=O)c1` [Example 2.171], for the setting “Table 2”, the IC50 fell in the range of 100 to 500 nM.

Take `N#Cc1cncc(COc2cc(O[C@H]3CCc4c(-c5ccccc5F)cccc43)c(Cl)cc2CNCC(=O)N[C@@H](CO)C(=O)O)c1` [Example 3.050]: the IC50 (Table 3) was 100 to 500 nM.

`COc1cccc(-c2cccc3c2CCC3CCOc2cc(OCc3cncc(C#N)c3)c(CN3CCC(O)CC3)cc2Cl)c1F` (stereo not shown) [Example 2.086]: where the note is “Table 2”, the IC50 was 500 to 20000 nM.

Take `N#Cc1cncc(COc2cc(O[C@@H]3CCc4c(-c5ccccc5F)cccc43)c(Cl)cc2CN[C@@H](CO)C(=O)O)c1` [Example 3.120]: the IC50 (Table 3) is under 100 nM.

On to `N#Cc1cncc(COc2cc(O[C@H]3CCc4c(-c5ccccc5F)cccc43)c(Cl)cc2CN2CC[C@H](C(=O)O)C2)c1` [Example 3.131], for which the IC50 (Table 3) was under 100 nM.

`N#Cc1cncc(COc2cc(O[C@H]3CCc4c(-c5cccc(OC(F)(F)F)c5F)cccc43)c(Cl)cc2CN[C@@H](CO)C(=O)O)c1` [Example 2.069]: under “Table 2”, the IC50 lay in the range of 500 to 20000 nM.

On to `C[C@@](CO)(NCc1cc(Cl)c(O[C@H]2CCc3c(-c4ccccc4F)cccc32)cc1-c1cncc(C#N)c1)C(=O)O` [Example 2.159], for which, where the note is “Table 2”, the IC50 was under 100 nM.

For `N#Cc1cncc(COc2cc(O[C@H]3CCc4c(-c5ccccc5F)cccc43)c(Cl)cc2CN[C@@H](C(=O)O)c2ccccc2)c1` [Example 2.176], where the note is “Table 2”, the IC50 was under 100 nM.

For `CC(C)(O)CNCc1cc(Cl)c(O[C@H]2CCc3c(-c4ccccc4)cccc32)cc1OCc1cncc(C#N)c1` [Example 1.012], the IC50 (Table 2) fell in the range of 500 to 20000 nM.

Turning to `COc1cccc(-c2cccc3c2CC[C@@H]3Oc2cc(OCc3cncc(C#N)c3)c(CN[C@@H](CO)C(=O)O)cc2Cl)c1F` [Example 2.028], the IC50 (Table 2) is under 100 nM.

On to `CCOc1cc(O[C@H]2CCc3c(-c4ccccc4F)cccc32)c(Cl)cc1CN[C@@H](CO)C(=O)O` [Example 2.036], for which the IC50 (Table 2) was under 100 nM.

As to `CCc1ccccc1-c1cccc2c1CC[C@@H]2Oc1cc(OCc2cncc(C#N)c2)c(CN[C@@H](CO)C(=O)O)cc1Cl` [Example 2.035], the IC50 (Table 2) lay within 100 to 500 nM.

With `C[C@H](NCc1cc(Cl)c(O[C@H]2CCc3c(-c4ccccc4F)cccc32)cc1OCc1cncc(C#N)c1)C(N)=O` [Example 2.168], under “Table 2”, the 50% inhibitory concentration (IC50) lay within 100 to 500 nM.

For `C[C@H](NCc1cc(Cl)c(O[C@H]2CCc3c(-c4ccccc4F)cccc32)cc1OCc1cncc(C#N)c1)C(=O)N[C@@H](CO)C(=O)O` [Example 3.047], under “Table 3”, the IC50 is under 100 nM.

Take `COC[C@H](NCc1cc(Cl)c(O[C@H]2CCc3c(-c4ccccc4F)cccc32)cc1OCc1cncc(C#N)c1)C(=O)O` [Example 2.134]: the IC50 (Table 2) was under 100 nM.

Turning to `COc1cc(O[C@H]2CCc3c(-c4ccccc4)cccc32)c(Cl)cc1CN[C@@H](CO)C(=O)O` [Example 2.007], the IC50 (Table 2) lay in the range of 100 to 500 nM.

With `N#Cc1cncc(COc2cc(O[C@H]3CCc4c(-c5ccccc5F)cccc43)c(Cl)cc2CN[C@@H]2CCCC[C@@H]2O)c1` [Example 3.032], for the setting “Table 3”, the IC50 is under 100 nM.

On to `N#Cc1cncc(COc2cc(O[C@H]3CCc4c(-c5ccc6c(c5)OCCO6)cccc43)c(Cl)cc2CN[C@@H](CO)C(=O)O)c1` [Example 2.024], for which the IC50 (Table 2) was under 100 nM.

Consider `COc1cccc(-c2cccc3c2CC[C@@H]3Oc2cc(OCc3cncc(C#N)c3)c(CN[C@H](C(=O)O)[C@@H](C)O)cc2Cl)c1F` [Example 2.106], for which, under “Table 2”, the IC50 is under 100 nM.

As for `C[C@@](CO)(NCc1cc(Cl)c(O[C@H]2CCc3c(-c4ccc5c(c4F)OCCO5)cccc32)cc1OCc1cc(C#N)cc(C#N)c1)C(=O)O` [Example 3.005], the IC50 (Table 3) is under 100 nM.

As to `CC(C)C[C@H](NCc1cc(Cl)c(O[C@H]2CCc3c(-c4ccccc4F)cccc32)cc1OCc1cncc(C#N)c1)C(=O)O` [Example 2.091], the IC50 (Table 2) fell in the range of 100 to 500 nM.

Turning to `N#Cc1cncc(COc2cc(O[C@H]3CCc4c(-c5ccccc5F)cccc43)c(Cl)cc2CN2CCC(F)CC2)c1` [Example 2.093], the concentration for half-maximal inhibition (IC50) (Table 2) fell in the range of 500 to 20000 nM.

As for `O=C(O)[C@H](CO)NCc1cc(Cl)c(O[C@H]2CCc3c(-c4ccccc4F)cccc32)cc1OCc1cncc(-c2nn[nH]n2)c1` [Example 3.108], the IC50 (Table 3) fell in the range of 100 to 500 nM.

On to `N#Cc1cncc(COc2cc(O[C@H]3CCc4c(-c5ccccc5F)cccc43)c(Cl)cc2CN[C@H](Cc2ccc(O)cc2)C(=O)O)c1` [Example 3.102], for which the IC50 (Table 3) was 500 to 20000 nM.

Turning to `COc1cccc(-c2cccc3c2CC[C@@H]3Oc2cc(OCc3cncc(C#N)c3)c(CN[C@@H](CO)C(=O)O)cc2Cl)c1` [Example 2.015], the IC50 (Table 2) was under 100 nM.

Take `N#Cc1cncc(COc2cc(O[C@H]3CCc4c(-c5ccc6c(c5F)OCCO6)cccc43)c(Cl)cc2CN2CCC(O)CC2)c1` [Example 2.058]: for the setting “Table 2”, the 50% inhibitory concentration (IC50) is under 100 nM.

With `COc1cc(O[C@H]2CCc3c(-c4ccc5c(c4)OCCO5)cccc32)c(Cl)cc1CN1CC(O)C1` [Example 2.042], under “Table 2”, the IC50 was in the range of 500 to 20000 nM.

(Values after patent publication US10639284B2, “Immunomodulator compounds” (CHEMOCENTRYX, INC., priority 2016, dated 2020).)
